Columns and labels:
Assay type in all cases: functional
Mus musculus [1] = assay: In vivo inhibition of MAO-B in po dosed mouse brain relative to control
Rattus norvegicus [2] = assay: In vivo inhibition of MAO-B in po dosed rat brain relative to control
Mus musculus [3] = assay: In vivo inhibition of AChE in po dosed mouse brain relative to control
Oryctolagus cuniculus [4] = assay: In vivo inhibition of MAO-B in po dosed rabbit brain relative to control
Oryctolagus cuniculus [5] = assay: In vivo inhibition of AChE in po dosed rabbit brain relative to control
Rattus norvegicus [6] = assay: In vivo inhibition of AChE in po dosed rat brain relative to control

Measured: inhibition (INH)

C#CCN[C@@H]1CCc2ccc(OC(=O)N(C)CC)cc21 [LADOSTIGIL]
70 - 90%: Mus musculus [1] | Rattus norvegicus [2] | Oryctolagus cuniculus [4]
25 - 40%: all other assays above

From ChEMBL document CHEMBL4354793, “Current and emerging therapeutic targets of alzheimer's disease for the design of multi-target directed ligands” (Medchemcomm, 2019)
